Where two headings read alike, the source gives them in different places.
Experiments:
[1] = biological target: T1, C. difficile Glutamate 2,3-aminomutase (Clostridioides difficile, UniProt Q185C5, V264I); type: biochemical, Clostridium difficile; settings: for Keq: 24° C.
T1 construct: made in house; host or cells: E. coli BL21(DE3) CodonPlus RILP, pET23a(+)
Protocol: Measurement of the Equilibrium Constant for Conversion of L-Glutamate into β-Glutamate Catalyzed by Glutamate 2,3-aminomutase. Assays were conducted as previously described (see activity measurements above) except at 24° C. […] Initial enzyme concentrations were either 0.75 μM or 0.15 μM. After approximately 4 hours at 24° C., an additional aliquot of enzyme was added to make the final enzyme concentration either 1.5 μM or 0.3 μM, and the reaction was allowed to proceed for an additional 16 hours at 24° C. The reaction was stopped with 0.55 N perchloric acid, and the amino acids were derivatized with PITC as previously described. Following HPLC separation of the PITC derivatized L-glutamate and β-glutamate, the simple ratio of the peak areas of the two compounds was calculated based on the equivalent extinction coefficient of the two compounds (20).

[2] = biological target: T1, C. difficile Glutamate 2,3-aminomutase; type: biochemical, Clostridium difficile; settings: for rate of reaction to the other isomer: 20 mM substrate; for Specific Activity: substrate 20 mM
Protocol: Glutamate 2,3-aminomutase Activity Measurements. Enzyme assays were conducted in an anaerobic chamber (Coy, Grass Lake, Mich.) at 37° C. […] At various time intervals (0-3 min), 45 μl of reaction mix was added to 15 μl of 2N perchloric acid to stop the reaction. Samples were centrifuged at 14,000×g for 10 min. The supernatant fluids were treated with PITC according to the method of Heinrikson and Meredith (20). Samples were dissolved in 100 μl of coupling buffer, concentrated to dryness by vacuum centrifugation, redissolved in 400 μl coupling buffer plus 20 μl of PITC, allowed to react for 30 min at room temperature, concentrated to dryness as above, and dissolved in either 0.5 or 1.0 ml water prior to injection (50 or 100 μl). The PITC derivative of L-glutamate was separated from the β-glutamate derivative by HPLC chromatography (20) using a C18 reverse phase column (Phenomenex Gemini 5μ, 4.6 mm×25 cm, #G-4435-E0), flow rate 1 ml/min, room temperature. The PITC-amino acids were separated with a linear gradient composed of 0.05 M ammonium acetate in water (buffer A) and 0.1 M ammonium acetate in 44% water, 46% acetonitrile, and 10% methanol (buffer B). The gradient established was 0-10% Buffer B in 20 min, 10-100% Buffer B in 10 min. […] Concentrations of L-glutamate or β-glutamate were measured using an amino acid standard solution (Pierce Chemical Co., #20088). For enzyme activity measurements at selected time points, the peak area of either L-glutamate or β-glutamate was divided by the total peak area (L-glutamate+β-glutamate) and multiplied by the starting concentration of either L-glutamate or β-glutamate to obtain molar concentrations. Enzyme kinetic parameters were determined by varying the concentration of L-glutamate (0.6-20 mM). Two separate analyses were conducted at two concentrations of enzyme (0.75 and 0.15 μM—subunit) with remaining conditions as stated above. Initial velocities were measured and used to calculate kinetic parameters (Vmax and Km) by the nonlinear least squares curve fitting method of Cleland (25).

Compound: N[C@@H](CCC(=O)O)C(=O)O [L-Glutamate, L-glutamate]
- Keq ([1]; [L-Glutamate] start 0.6 mM, [Enzyme] 1.5 μM (subunit)): 14.2
- Keq ([1]; [L-Glutamate] start 0.8 mM, [Enzyme] 0.30 μM (subunit)): 14.8
- Keq ([1]; [L-Glutamate] start 1.4 mM, [Enzyme] 1.5 μM (subunit)): 15.2
- Keq ([1]; [L-Glutamate] start 1.6 mM, [Enzyme] 0.30 μM (subunit)): 15.7
- Keq ([1]; [L-Glutamate] start 3.1 mM, [Enzyme] 1.5 μM (subunit)): 16.0
- Keq ([1]; [L-Glutamate] start 3.2 mM, [Enzyme] 0.30 μM (subunit)): 15.9
- Keq ([1]; [L-Glutamate] start 6.4 mM, [Enzyme] 0.30 μM (subunit)): 15.9
- Keq ([1]; [L-Glutamate] start 6.6 mM, [Enzyme] 1.5 μM (subunit)): 15.6
- Keq ([1]; [L-Glutamate] start 12.4 mM, [Enzyme] 1.5 μM (subunit)): 15.6
- Keq ([1]; [L-Glutamate] start 12.9 mM, [Enzyme] 0.30 μM (subunit)): 16.3
- Keq ([1]; [L-Glutamate] start 22.1 mM, [Enzyme] 0.30 μM (subunit)): 15.5
- Keq ([1]; [L-Glutamate] start 22.9 mM, [Enzyme] 1.5 μM (subunit)): 15.3
- rate of reaction to the other isomer [2]: 5.9 μmoles min^−1· (mg protein)^−1
- maximum velocity ([2]; 37° C., forward direction): 7 μmoles of β-glutamate min^−1· (mg protein)^−1
- Vmax ([2]; Assay 1, 37° C.): 7.5 ± 0.18 μmoles · β-Glutamate min^−1 (mg protein)^−1
- kcat ([2]; Assay 1, 37° C.): 6.2 s⁻¹
- Km ([2]; Assay 1, 37° C., read-out: Km (L-Glutamate)): 2200 ± 160 µM
- Vmax ([2]; Assay 2, 37° C.): 7.3 ± 0.19 μmoles · β-Glutamate min^−1 (mg protein)^−1
- kcat ([2]; Assay 2, 37° C.): 6.0 s⁻¹
- Km ([2]; Assay 2, 37° C., read-out: Km (L-Glutamate)): 2300 ± 180 µM
- kcat ([2]; conditions of Table 3): 6 s⁻¹
- Km ([2]; forward direction, conditions of Table 3, read-out: Michaelis constant (Km)): 2000 µM
- Specific Activity ([2]; SAM +, Dithionite +, 37° C.): 5.9 μmoles · min^−1 · mg^−1 Protein
- Specific Activity ([2]; SAM +, Dithionite −, 37° C.): 0.16 μmoles · min^−1 · mg^−1 Protein
- Specific Activity ([2]; SAM −, Dithionite +, 37° C.): <0.01 μmoles · min^−1 · mg^−1 Protein

Compound: NCCCC[C@H](N)C(=O)O [L-lysine, reference compound]
- conversion to β-lysine by glutamate 2,3-aminomutase ([2]; substrate specificity): does not catalyze

Compound: O=S([O-])S(=O)[O-].[Na+].[Na+] [dithionite, sodium dithionite, reference compound]
- effect of excess on enzyme activity ([2]; excess, progressive loss of activity over time at >70 μM (FIG. 3)): inhibitory

Compound: NC(CC(=O)O)CC(=O)O [β-Glutamate, β-glutamate]
- Keq ([1]; [β-Glutamate] start 0.6 mM, [Enzyme] 0.30 μM (subunit)): 15.6
- Keq ([1]; [β-Glutamate] start 0.6 mM, [Enzyme] 1.5 μM (subunit)): 15.3
- Keq ([1]; [β-Glutamate] start 1.4 mM, [Enzyme] 0.30 μM (subunit)): 15.6
- Keq ([1]; [β-Glutamate] start 1.4 mM, [Enzyme] 1.5 μM (subunit)): 15.8
- Keq ([1]; [β-Glutamate] start 3.1 mM, [Enzyme] 0.30 μM (subunit)): 16.2
- Keq ([1]; [β-Glutamate] start 3.1 mM, [Enzyme] 1.5 μM (subunit)): 16.3
- Keq ([1]; [β-Glutamate] start 6.2 mM, [Enzyme] 0.30 μM (subunit)): 15.7
- Keq ([1]; [β-Glutamate] start 6.2 mM, [Enzyme] 1.5 μM (subunit)): 16.4
- Keq ([1]; [β-Glutamate] start 12.3 mM, [Enzyme] 0.30 μM (subunit)): 16.6
- Keq ([1]; [β-Glutamate] start 12.3 mM, [Enzyme] 1.5 μM (subunit)): 16.4
- Keq ([1]; [β-Glutamate] start 22.9 mM, [Enzyme] 1.5 μM (subunit)): 15.9
- Keq ([1]; [β-Glutamate] start 24.3 mM, [Enzyme] 0.30 μM (subunit)): 16.1
- equilibrium ratio of β-Glu to L-glutamate ([1]; same end point from either substrate): approximately 16
- rate of reaction to the other isomer [2]: 2.3 μmoles min^−1· (mg protein)^−1
- Specific Activity ([2]; SAM +, Dithionite +, 37° C.): 2.3 μmoles · min^−1 · mg^−1 Protein

From US7456271B2, “Glutamate 2,3-aminomutases and methods of use thereof” (Wisconsin Alumni Research Foundation, priority 2005, dated 2008)
